The values below are quoted from earlier work in patent US20100104638A1 (priority 2008, published 2010).

Structures are written as SMILES.

Turning to `CC(=O)Nc1ccc(O)cc1` [Acetaminophen, N-(4-hydroxyphenyl) acetamide], the Aqueous solubility result is reported as “about 14 mg/ml”.
